Patent US7265130B2, “NPY Y5 antagonist” (Shionogi & Co., Ltd., priority 1999, dated 2007)

What was measured:
[1] = target: T1, human NPY Y5 receptor (Homo sapiens, UniProt Q15761); experiment: cAMP production inhibitory activity in CHO cells; type: cell-based; settings: against 50 nM NPY inhibition of forskolin stimulated cAMP, CHO cells expressing human NPY Y5 receptor
T1 construct: expressed in transfected cells
T1 sequence (Q15761 1-445): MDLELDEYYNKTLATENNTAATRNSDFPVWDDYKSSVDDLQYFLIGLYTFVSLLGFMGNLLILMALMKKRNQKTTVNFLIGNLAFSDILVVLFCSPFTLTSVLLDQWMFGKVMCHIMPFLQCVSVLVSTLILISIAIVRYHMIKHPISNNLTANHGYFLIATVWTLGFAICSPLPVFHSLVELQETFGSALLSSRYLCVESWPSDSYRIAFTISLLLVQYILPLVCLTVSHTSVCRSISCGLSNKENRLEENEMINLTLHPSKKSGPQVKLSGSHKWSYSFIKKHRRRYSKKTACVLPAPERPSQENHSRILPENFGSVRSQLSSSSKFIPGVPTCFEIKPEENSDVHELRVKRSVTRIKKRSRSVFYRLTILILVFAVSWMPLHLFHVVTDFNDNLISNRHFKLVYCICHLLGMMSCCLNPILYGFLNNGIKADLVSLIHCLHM
Outline: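 CHO cells expressing human NPY Y5 receptor preincubated 20 min at 37 °C with 2.5 mM IBMX, then with compound for 5 min. Stimulated with 50 nM NPY plus 10 μM forskolin for 30 min. Reaction stopped with 1N HCl; supernatant cAMP measured by EIA.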

[2] = target: T2, NPY Y1 receptor (Homo sapiens, UniProt P25929); experiment: Affinity for NPY Y1 receptor (membranes from SK-N-MC cells); settings: membranes from Y1-expression cells (human neuroblastoma, SK-N-MC); read-out: Binding IC50 for NPY Y1 receptor
T2 construct: membranes prepared from Y1-expression cells (human neuroblastoma, SK-N-MC); endogenous in cells; host or cells: SK-N-MC human neuroblastoma cells (membranes)
T2 sequence (P25929 1-384): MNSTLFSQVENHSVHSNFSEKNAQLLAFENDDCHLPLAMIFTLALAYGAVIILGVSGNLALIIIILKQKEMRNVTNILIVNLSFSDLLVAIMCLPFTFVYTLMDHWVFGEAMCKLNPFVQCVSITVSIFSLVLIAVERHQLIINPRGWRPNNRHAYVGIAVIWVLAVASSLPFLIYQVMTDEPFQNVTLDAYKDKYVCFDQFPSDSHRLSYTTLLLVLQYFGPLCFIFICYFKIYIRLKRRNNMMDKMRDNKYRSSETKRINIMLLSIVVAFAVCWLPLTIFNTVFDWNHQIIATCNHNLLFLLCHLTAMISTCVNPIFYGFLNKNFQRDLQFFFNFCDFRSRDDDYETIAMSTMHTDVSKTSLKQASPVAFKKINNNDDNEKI
Procedure: (§1) The membranes prepared from the above CHO cells expressing NPY Y5 receptor, the compound of the present invention and 30,000 cpm [^125I] peptide YY (60 pM of final concentration: Amersham) were incubated in the assay buffer (20 mM HEPES-Hanks buffer containing 0.1% bovine serum albumin, pH 7.4) at 25° C. for 2 hours, and then the mixture was filtered with a glassfilter GF/C treated with polyethyleneimine. After the glassfilter was washed with 50 mM Tris-HCl buffer (pH 7.4), the radioactivity on the filter was measured with a gamma counter. The non-specific binding was detected in the presence of 200 nM of peptide YY. The 50% inhibitory concentration of the test compound against the specific peptide YY binding (IC50 value) was calculated (Inui, A. et al. Endocrinology 131, 2090-2096 (1992)).
(§2) Using the membranes prepared from Y1-expression cells (human neuroblastoma, SK-N-MC) and the membranes prepared from Y2-expression cells (human neuroblastoma, SMS-KAN), the experiment was carried out in a similar way as Experiment 1 to determine the affinity for NPY Y1 receptor and NPY Y2 receptor.

[3] = target: T3, NPY Y2 receptor (Homo sapiens, UniProt P49146); experiment: Affinity for NPY Y2 receptor (membranes from SMS-KAN cells); settings: membranes from Y2-expression cells (human neuroblastoma, SMS-KAN); read-out: Binding IC50 for NPY Y2 receptor
T3 construct: membranes prepared from Y2-expression cells (human neuroblastoma, SMS-KAN); endogenous in cells; host or cells: SMS-KAN human neuroblastoma cells (membranes)
T3 sequence (P49146 1-381): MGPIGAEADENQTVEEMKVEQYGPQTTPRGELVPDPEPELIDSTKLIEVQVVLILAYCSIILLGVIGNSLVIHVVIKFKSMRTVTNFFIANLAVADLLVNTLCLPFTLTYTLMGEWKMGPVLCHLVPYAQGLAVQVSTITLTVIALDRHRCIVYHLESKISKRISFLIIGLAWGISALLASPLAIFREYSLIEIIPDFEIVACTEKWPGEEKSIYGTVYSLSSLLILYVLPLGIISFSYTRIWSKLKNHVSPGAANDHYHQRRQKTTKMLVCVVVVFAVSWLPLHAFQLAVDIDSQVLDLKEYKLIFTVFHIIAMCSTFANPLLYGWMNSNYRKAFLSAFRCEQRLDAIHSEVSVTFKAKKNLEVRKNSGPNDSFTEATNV
Procedure: as §1, §2

[4] = target: T1, human NPY Y5 receptor; experiment: Affinity for NPY Y5 receptor ([125I] peptide YY binding, CHO cell membranes); settings: inhibition of specific [125I] peptide YY binding, membranes of CHO cells expressing NPY Y5 receptor
Outline: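 Membranes from CHO cells stably expressing human NPY Y5 receptor incubated with test compound and [125I] peptide YY (60 pM final) in HEPES-Hanks buffer with 0.1% BSA, pH 7.4, 25° C for 2 hours. Filter-bound radioactivity counted; non-specific binding with 200 nM peptide YY; IC50 against specific binding calculated.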

| SMILES | IC50 [1] [nM] | IC50 [2] [nM] | IC50 [3] [nM] | IC50 [4] [nM] |
| --- | --- | --- | --- | --- |
| CC(C)S(=O)(=O)NC1CCC(C(=O)Nc2cccc(OC3CCCC3)c2)CC1 (centres unmarked) [Ia-199] | 1.6 | ≥ 100000 | ≥ 100000 | 0.11 |
| CC(C)(C)S(=O)(=O)NC1CCC(C(=O)Nc2ccc(OC3CCOCC3)cc2)CC1 (centres unmarked) [Ia-200] | 18 | ≥ 100000 | ≥ 100000 | 1.4 |
